Reference: article PMC4100265, “Inhibition of Human Cytochrome P450 Enzymes by Allergen Removed Rhus verniciflua Stoke Standardized Extract and Constituents” (Evidence-based Complementary and Alternative Medicine : eCAM, 2014)
Where two headings read alike, the source gives them in different places.

What was measured:
Format in all cases: in vitro ADME
recombinant human CYP1A2 = target: T1, recombinant human CYP1A2 (Homo sapiens, UniProt P05177); assay: Luminogenic P450-Glo enzyme inhibition assay, CYP1A2
T1 construct: purchased Promega (P450-Glo Screening system); host or cells: baculovirus expression system
T1 sequence (P05177 1-516): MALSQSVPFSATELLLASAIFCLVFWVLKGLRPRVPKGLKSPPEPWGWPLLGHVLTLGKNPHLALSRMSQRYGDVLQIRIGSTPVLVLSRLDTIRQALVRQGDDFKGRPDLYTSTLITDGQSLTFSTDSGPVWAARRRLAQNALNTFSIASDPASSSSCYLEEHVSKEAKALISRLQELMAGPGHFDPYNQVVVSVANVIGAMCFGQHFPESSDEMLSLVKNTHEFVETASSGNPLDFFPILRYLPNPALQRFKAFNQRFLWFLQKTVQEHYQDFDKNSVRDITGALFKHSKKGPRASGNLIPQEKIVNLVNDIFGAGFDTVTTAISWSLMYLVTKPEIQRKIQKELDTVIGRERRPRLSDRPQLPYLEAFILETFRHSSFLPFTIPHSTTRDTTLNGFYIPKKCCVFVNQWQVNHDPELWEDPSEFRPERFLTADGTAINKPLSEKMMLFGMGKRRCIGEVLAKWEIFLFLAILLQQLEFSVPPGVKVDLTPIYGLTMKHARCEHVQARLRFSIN
Method: (§1) The assay was carried out using P450-Glo Screening system from Promega (Promega Inc., Madison Wis., USA). It contains recombinant human CYP1A2, CYP2C9, CYP2C19, CYP2D6, and CYP3A4 enzymes in the membranes produced by a baculovirus expression system, specific luminogenic cytochrome enzyme substrates (luciferin 6-methyl ether, luciferin 6-benzyl ether, 6-deoxyluciferin, ethylene glycol ester of 6-deoxyluciferin, and ethylene glycol ester of luciferin 6-methyl ether), negative control membranes, a nicotinamide adenine dinucleotide phosphate hydrogen (NADPH) regeneration system containing NADP+, glucose-6-phosphate, magnesium chloride (MgCl2) and glucose-6-phosphate dehydrogenase (functioning to initiate and sustain the CYP450 reaction by maintaining a non-limiting NADPH system), reaction buffer, luciferin detection reagent, and Luciferin-Free Water. The negative control membranes were devoid of CYP activity. The luminogenic inhibition assays were performed following the protocols from Promega Corp. (Technical Bulletin, P450-Glo Assays, Promega Corp., 2009) and previous studies. […] The 12.5 μL of the luciferin-free water was added individually in both the “untreated” wells representing the values of total CYP activity and the “minus-P450 control” wells representing the values of the CYP-independent background luminescence. Secondly, 12.5 μL of the 4× reaction mixture (containing human CYP membrane preparations, the appropriate luminogenic substrate, and potassium phosphate buffer) was added to the “treated” and the “untreated” wells. The 12.5 μL of the 4× control reaction mixture (containing membrane preparations devoid of CYP enzymes, the appropriate luminogenic substrate, and potassium phosphate buffer) was added to the “minus-P450 control” wells. The plate was preincubated at room temperature (25°C) for 10 min, and then 25 μL of the 2× NADPH regeneration system was added to initiate the reaction. […] The luminescence in all of the samples was measured using a microplate reader as relative light units (RLU) after 20 min incubation to stabilize the luminescent signal. The assay experiments were repeated three independent times. The amount of light produced is directly proportional to the CYP enzyme activity. The net signals from untreated CYP reactions represent total CYP activity (100%). The modulation of the CYP activity by the test compound was determined by comparing the changes from the average net signal of untreated CYP reactions with the changes observed from the test compound. […] USA).

recombinant human CYP2C9 = target: T2, recombinant human CYP2C9 (Homo sapiens, UniProt P11712); assay: Luminogenic P450-Glo enzyme inhibition assay, CYP2C9
T2 construct: purchased Promega (P450-Glo Screening system); host or cells: baculovirus expression system
T2 sequence (P11712 whole entry): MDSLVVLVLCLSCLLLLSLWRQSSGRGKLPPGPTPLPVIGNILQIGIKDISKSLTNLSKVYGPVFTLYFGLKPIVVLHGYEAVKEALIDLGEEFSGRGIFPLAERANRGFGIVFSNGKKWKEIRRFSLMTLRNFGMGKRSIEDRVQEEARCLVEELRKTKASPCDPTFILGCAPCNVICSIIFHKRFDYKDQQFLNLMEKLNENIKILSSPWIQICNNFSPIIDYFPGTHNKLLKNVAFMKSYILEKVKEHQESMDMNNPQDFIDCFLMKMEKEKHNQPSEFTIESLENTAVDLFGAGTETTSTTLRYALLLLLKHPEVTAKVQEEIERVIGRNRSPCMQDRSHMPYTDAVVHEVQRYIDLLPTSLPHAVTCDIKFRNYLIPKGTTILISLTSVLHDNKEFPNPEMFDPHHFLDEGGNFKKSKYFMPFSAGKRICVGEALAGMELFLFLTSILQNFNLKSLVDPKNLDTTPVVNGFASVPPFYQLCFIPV
Method: as §1

[1] = target: T3, recombinant human CYP2C19 (Homo sapiens, UniProt P33261); assay: Luminogenic P450-Glo enzyme inhibition assay, CYP2C19
T3 construct: purchased Promega (P450-Glo Screening system); host or cells: baculovirus expression system
T3 sequence (P33261 whole entry): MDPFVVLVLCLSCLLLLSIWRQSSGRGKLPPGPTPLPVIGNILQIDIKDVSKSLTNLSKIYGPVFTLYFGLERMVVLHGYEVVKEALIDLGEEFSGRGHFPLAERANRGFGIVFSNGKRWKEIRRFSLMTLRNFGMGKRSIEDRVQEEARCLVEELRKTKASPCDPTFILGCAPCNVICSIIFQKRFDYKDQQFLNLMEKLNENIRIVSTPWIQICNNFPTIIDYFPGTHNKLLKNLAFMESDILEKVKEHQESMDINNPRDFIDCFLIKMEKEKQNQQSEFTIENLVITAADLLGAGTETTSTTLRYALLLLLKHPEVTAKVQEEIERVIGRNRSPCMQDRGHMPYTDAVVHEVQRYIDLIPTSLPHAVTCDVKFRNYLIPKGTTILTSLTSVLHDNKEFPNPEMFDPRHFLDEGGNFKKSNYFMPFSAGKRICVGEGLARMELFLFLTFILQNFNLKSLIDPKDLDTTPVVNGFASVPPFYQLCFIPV
Method: as §1

CYP2D6 = target: T4, CYP2D6 (Homo sapiens, UniProt P10635); assay: Luminogenic P450-Glo enzyme inhibition assay, CYP2D6
T4 construct: purchased Promega (P450-Glo Screening system); host or cells: baculovirus expression system
T4 sequence (P10635 whole entry): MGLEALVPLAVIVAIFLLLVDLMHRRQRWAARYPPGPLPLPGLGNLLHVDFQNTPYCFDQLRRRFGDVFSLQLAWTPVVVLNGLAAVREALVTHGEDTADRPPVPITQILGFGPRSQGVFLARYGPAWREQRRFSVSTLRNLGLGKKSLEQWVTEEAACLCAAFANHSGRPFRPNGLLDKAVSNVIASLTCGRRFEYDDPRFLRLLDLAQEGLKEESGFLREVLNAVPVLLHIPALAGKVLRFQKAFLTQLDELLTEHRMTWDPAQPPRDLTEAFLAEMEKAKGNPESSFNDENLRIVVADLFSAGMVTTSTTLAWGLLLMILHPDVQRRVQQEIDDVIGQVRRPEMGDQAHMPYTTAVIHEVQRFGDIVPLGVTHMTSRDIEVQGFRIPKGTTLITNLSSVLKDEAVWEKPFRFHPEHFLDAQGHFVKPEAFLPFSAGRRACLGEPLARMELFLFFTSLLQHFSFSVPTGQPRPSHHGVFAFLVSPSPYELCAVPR
Method: as §1

recombinant human CYP3A4 = target: T5, recombinant human CYP3A4 (Homo sapiens, UniProt P08684); assay: Luminogenic P450-Glo enzyme inhibition assay, CYP3A4
T5 construct: purchased Promega (P450-Glo Screening system); host or cells: baculovirus expression system
T5 sequence (P08684 whole entry): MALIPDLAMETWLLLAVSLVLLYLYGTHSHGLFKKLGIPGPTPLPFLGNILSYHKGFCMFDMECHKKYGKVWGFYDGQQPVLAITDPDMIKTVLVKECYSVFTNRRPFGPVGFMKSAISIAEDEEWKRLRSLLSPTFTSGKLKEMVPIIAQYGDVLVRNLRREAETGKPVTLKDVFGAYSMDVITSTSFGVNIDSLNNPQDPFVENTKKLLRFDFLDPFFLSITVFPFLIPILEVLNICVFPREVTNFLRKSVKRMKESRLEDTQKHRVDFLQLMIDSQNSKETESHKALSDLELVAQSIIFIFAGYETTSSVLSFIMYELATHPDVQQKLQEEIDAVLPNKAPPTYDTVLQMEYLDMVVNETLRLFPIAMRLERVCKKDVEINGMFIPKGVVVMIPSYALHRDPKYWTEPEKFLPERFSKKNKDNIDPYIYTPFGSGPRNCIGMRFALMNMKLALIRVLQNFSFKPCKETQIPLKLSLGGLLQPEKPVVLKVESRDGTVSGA
Method: as §1

[2] = classified by IC50 value, read-out: inhibitory potency class on CYP1A2
[3] = recombinant human enzyme, luminescent assay, 30 min incubation, read-out: IC50 CYP1A2 (converted)
[4] = classified by IC50 value, read-out: inhibitory potency class on CYP2C9
[5] = recombinant human enzyme, luminescent assay, 30 min incubation, read-out: IC50 CYP2C9 (converted)
[6] = classified by IC50 value, read-out: inhibitory potency class on CYP2C19
[7] = recombinant human enzyme, luminescent assay, 30 min incubation, read-out: IC50 CYP2C19 (converted)
[8] = classified by IC50 value, read-out: inhibitory potency class on CYP2D6
[9] = recombinant human enzyme, luminescent assay, 45 min incubation, read-out: IC50 CYP2D6 (converted)
[10] = classified by IC50 value, read-out: inhibitory potency class on CYP3A4
[11] = recombinant human enzyme, luminescent assay, 30 min incubation, read-out: IC50 CYP3A4 (converted)

| IC50 (recombinant human CYP1A2; [2]) [µM] | IC50 (recombinant human CYP1A2; [3]) [µM] | IC50 (recombinant human CYP2C9; [4]) [µM] | IC50 (recombinant human CYP2C9; [5]) [µM] | IC50 [1, 6] [µM] | IC50 [1, 7] [µM] | IC50 (CYP2D6; [8]) [µM] | IC50 (CYP2D6; [9]) [µM] | IC50 (recombinant human CYP3A4; [10]) [µM] | IC50 (recombinant human CYP3A4; [11]) [µM] | IC50 at 45 min (CYP2D6; human, classified by IC50 value, read-out: inhibitory potency class on CYP2D6) [µg/mL] | Structure (SMILES) |
| --- | --- | --- | --- | --- | --- | --- | --- | --- | --- | --- | --- |
| > 347 | 17100 | > 347 | 1870 | 69.4 to 347 | 223 | > 347 | 18500 | > 347 | 1610 |  | O=C1c2ccc(O)cc2OC(c2ccc(O)c(O)c2)C1O (stereo not drawn) [Fustin, 2-(3,4-dihydroxyphenyl)-3,7-dihydroxy-2,3-dihydrochromen-4-one] |
| < 69.9 | 1.61 | < 69.9 | 18.9 | < 69.9 | < 0.00349 | 69.9 to 349 | 163 | > 349 | 1080 | > 100 | O=c1c(O)c(-c2ccc(O)c(O)c2)oc2cc(O)ccc12 [Fisetin, 2-(3,4-dihydroxyphenyl)-3,7-dihydroxychromen-4-one] |
